Laboratory results from publication PMC12310481, “Sequence, characterization and pharmacological analyses of the adipokinetic hormone receptor in the stick insect, Carausius morosus” (Frontiers in Endocrinology, 2025).
Several values for one entry are separate records, joined by “and”; a condition that tells them apart may be missing. Equal values may be shown once. Non-standard residues stand in square brackets, D forms with d. Residues, ends and D or L forms follow the SMILES beside them. pGlu = O=C1CC[C@@H](C(=O)O)N1

Experiments:
[1] = tested on: endogenously expressed purinoceptors; experiment: ATP positive control in the bioluminescence assay; assay type: cell-based, Chinese hamster; conditions: 50 μM ATP
Method: Synthetic peptide stocks of naturally-occurring AKH-related peptides [corazonin, adipokinetic hormone corazonin-like peptide (ACP)], alanine-substituted analogs of Carmo-HrTH-II, natural C. morosus AKH peptides, and several AKHs from other arthropod species in synthetic form were used for preparation of serial dilutions all of which were prepared in assay media (DMEM-F12 media containing 0.1% bovine serum albumin, 1X antimycotic-antibiotic) and loaded in triplicate or quadruplicate into 96-well white luminescence plates (Greiner Bio-One, Germany). Cells stably expressing Carmo-AKHR and transiently expressing aequorin were loaded with an automated injector unit into each individual well containing different test compounds at various concentrations, including assay media alone (negative control wells) and 50 μM ATP (positive control wells) acting on endogenously expressed purinoceptors ([34], [35]). Immediately after injection of the cells into each well, luminescence was measured for 20 s using a Synergy 2 Multi-Mode Microplate Reader (BioTek, Winooski, VT, USA). […] Data were analyzed using a one-way or two-way ANOVA and Tukey’s multiple comparisons post-hoc test, with differences between treatments considered significant if p<0.05.

[2] = tested on: Carausius morosus AKH receptor (Carmo-AKHR); experiment: Calcium bioluminescence (aequorin) reporter assay, CHO-K1 cells stably expressing Carmo-AKHR; assay type: cell-based; conditions: for EC50: CHO-K1 stably expressing Carmo-AKHR, transiently aequorin, luminescence measured 20 s, from dose-response activation curves, 3 to 4 independent biological replicates, normalized to ATP maximum, read-out: EC50 value; for Fold-reduction in activity (receptor activation relative to Carmo-HrTH-II): ratio of EC50 relative to Carmo-HrTH-II
Method: Functional activation of Carmo-AKHR was carried out by following mammalian cell culture procedures as previously described ([20], [29]) with the following modifications. […] At 24 h post-transfection, cells were selected in DMEM:F12 media containing 10% heat-inactivated fetal bovine serum (Wisent, St. Bruno, QC), 1x antimycotic-antibiotic and 600 μg/mL geneticin (G418) until clonal recombinant cells were evident in transfected cells while no live cells were present in non-transfected CHO-K1 cells (control). Individual clonal recombinant colonies were seeded into separate wells of a 96 well cell-culture dish (Sarstedt Inc., Montreal, QC) and grown to confluence while maintaining geneticin selection. To identify clonal recombinant lines with optimal Carmo-AKHR activity yielding the greatest signal-to-noise ratio, individual clonal recombinant lines were assayed in the bioluminescence reporter assay as described previously ([30]). […] The recombinant cell line showing the optimal luminescent response with greatest signal-to-noise ratio was expanded for preparation of cryo-stocks and subsequent detailed investigation of receptor specificity. […] Bruno, QC), 250 μg/mL Geneticin (MilliporeSigma Canada Ltd., Oakville, ON) and 1X antimycotic-antibiotic (ThermoFisher Scientific, Whitby, ON). […] Transfection was completed with PolyJetTM DNA In Vitro Transfection Reagent (FroggaBio, Toronto, ON) following manufacturer recommendations for transfection of adherent cells. At 48 hours post-transfection, cells were detached from culture flasks using Dulbecco's PBS (Wisent, St. Bruno, QC) containing 5 mM Ethylenediaminetetraacetic acid (EDTA) and were prepared for the functional assay as previously described ([30]). […] Immediately after injection of the cells into each well, luminescence was measured for 20 s using a Synergy 2 Multi-Mode Microplate Reader (BioTek, Winooski, VT, USA). […] Data were analyzed using a one-way or two-way ANOVA and Tukey's multiple comparisons post-hoc test, with differences between treatments considered significant if p<0.05.

[3] = tested on: Carausius morosus AKH receptor (Carmo-AKHR); assay type: cell-based; conditions: transient Carmo-AKHR, co-expressing murine promiscuous G protein
Carausius morosus = conditions: in vivo bioassay, stick insect; cited from earlier work
Description: C. morusus produces decapeptide AKHs that function optimally via the Carmo-AKHR. Two shorter bioanalogs with high identity to Carmo-HrTH were available for testing in the receptor activation assay: Triin-AKH, an amidated nonapeptide that ends in Gly^9 and the amidated octapeptide, Peram-CAH-II that ends in Trp^8. These peptides produced receptor activation curves with EC50 values similar to those of the endogenous AKH peptides ( Table 2 ). Taken on its own, this may indicate that the C-terminal amino acids of Carmo-HrTH (thus Thr^10 and Gly^9) are not critical for activation of Carmo-AKHR, and ... || Replacing the aromatic amino acids, Phe^4 or Trp^8 that are iconic for most natural members of the AKH family, with a nonpolar amino acid like Ala, completely abolished receptor activation in the current in vitro study. Earlier in vivo investigations on L. migratoria ([58]), as well as AKH/RPCH ligand-receptor model studies on S. gregaria and D. pulex made it clear that these two aromatic residues are critical for receptor binding ([55], [56]). […] Clearly, this position in the AKH ligand appear ...

SMILES	Maximal luminescent response [1]	EC50 [2] [nM]	Fold-reduction in activity (receptor activation relative to Carmo-HrTH-II) [2]	Luminescence relative to assay media (BSA) alone [3]	Hypertrehalosemic effect in vivo (in words) (Carausius morosus)
Nc1ncnc2c1ncn2[C@@H]1O[C@H](COP(=O)(O)OP(=O)(O)OP(=O)(O)O)[C@@H](O)[C@H]1O [ATP]	about 12 000				
CC(C)C[C@H](NC(=O)[C@@H]1CCC(=O)N1)C(=O)N[C@H](C(=O)N[C@@H](Cc1ccccc1)C(=O)N[C@H](C(=O)N1CCC[C@H]1C(=O)N[C@@H](CO)C(=O)N[C@@H](Cc1c[nH]c2ccccc12)C(N)=O)[C@@H](C)O)[C@@H](C)O [Aedae-AKH] ([pGlu]LTFTPSW-NH2)		1030	14 fold and 14.00 fold	~ 3 fold	
CC(C)C[C@H](NC(=O)[C@@H]1CCC(=O)N1)C(=O)N[C@@H](CC(N)=O)C(=O)N[C@@H](Cc1ccccc1)C(=O)N[C@H](C(=O)N1CCC[C@H]1C(=O)N[C@@H](CC(N)=O)C(=O)N[C@@H](Cc1c[nH]c2ccccc12)C(=O)NCC(=O)N[C@H](C(N)=O)[C@@H](C)O)[C@@H](C)O [Locmi-AKH-I] ([pGlu]LNFTPNWGT-NH2)		4140			biological function is impaired
CC(C)C[C@H](NC(=O)[C@@H]1CCC(=O)N1)C(=O)N[C@H](C(=O)N[C@@H](Cc1ccccc1)C(=O)N[C@H](C(=O)N1CCC[C@H]1C(=O)N[C@@H](CC(N)=O)C(=O)N[C@@H](Cc1c[nH]c2ccccc12)C(N)=O)[C@@H](C)O)[C@@H](C)O [Peram-CAH-II] ([pGlu]LTFTPNW-NH2)		388	5 fold and 5.28 fold		only about a third of what the native decapeptide achieved
CC(C)C[C@H](NC(=O)[C@@H]1CCC(=O)N1)C(=O)N[C@H](C(=O)N[C@@H](Cc1ccccc1)C(=O)N[C@H](C(=O)N1CCC[C@H]1C(=O)N[C@@H](CC(N)=O)C(=O)N[C@@H](Cc1c[nH]c2ccccc12)C(=O)NCC(=O)N[C@@H](CO)C(N)=O)[C@@H](C)O)[C@@H](C)O [Phyle-CC] ([pGlu]LTFTPNWGS-NH2)		18	0.24 fold		not at all (in vivo) affected
CC(C)C[C@H](NC(=O)[C@@H]1CCC(=O)N1)C(=O)N[C@@H](CC(N)=O)C(=O)N[C@@H](Cc1ccccc1)C(=O)N[C@H](C(=O)N1CCC[C@H]1C(=O)N[C@@H](CC(N)=O)C(=O)N[C@@H](Cc1c[nH]c2ccccc12)C(=O)NCC(=O)N[C@@H](CO)C(N)=O)[C@@H](C)O [Phymo-AKH] ([pGlu]LNFTPNWGS-NH2)		5050	68.66 fold		absence of function in vivo
